Laboratory results from ChEMBL document CHEMBL1201862, “PubChem BioAssay data set” (2004).
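Growth conditions: 96-well plates. Treatment: test compound, 48 hours, 5 concentrations. Analysis: linear interpolation between bracketing concentrations; unreached endpoints set to highest concentration. GI50: concentration for 50% inhibition of growth.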 Activity calls are given as the source filed them. No stated cut-off is given here; in the data, active = GI50 up to about 1.1 µM and inactive = higher.

Legend:
Assay in all cases: NCI tumour cell line growth inhibition, 48 h
A549 = system: A549
DU-145 = system: DU-145
HCT-116 = system: HCT-116
HL-60 = system: HL-60
K562 = system: K562
MCF7 = system: MCF7
MDA-MB-231 = system: MDA-MB-231
Malme-3M = system: Malme-3M
NCI-H23 = system: NCI-H23
NCI-H460 = system: NCI-H460
NCI-H522 = system: NCI-H522
NCI/ADR-RES = system: NCI/ADR-RES
OVCAR-5 = system: OVCAR-5
RXF 393 = system: RXF 393
SF-268 = system: SF-268
SF-539 = system: SF-539
SK-MEL-28 = system: SK-MEL-28
SK-OV-3 = system: SK-OV-3
SN12C = system: SN12C
T47D = system: T47D

Measured: GI50

O=[N+]([O-])/C=C/c1cc2ccccc2[nH]1
inactive: A549 17.5 µM | DU-145 15.4 µM | HCT-116 4.31 µM | HL-60 4.33 µM | K562 13.8 µM | MCF7 4.03 µM | MDA-MB-231 18.2 µM | Malme-3M 27.5 µM | NCI-H23 13.1 µM | NCI-H460 14.6 µM | NCI-H522 9.35 µM | NCI/ADR-RES 32.1 µM | OVCAR-5 19.5 µM | RXF 393 13.3 µM | SF-268 16.9 µM | SF-539 9.84 µM | SK-MEL-28 25.4 µM | SK-OV-3 16.9 µM | SN12C 17.7 µM | T47D 16.2 µM

CCOC(=O)c1c(C)n(-c2ccc(Cl)cc2)c2c1cc(O)c1[nH]c3c(c12)CCCC3
inactive: A549 > 100 µM | DU-145 > 100 µM | HCT-116 > 100 µM | HL-60 34.6 µM | K562 41.3 µM | MCF7 34.7 µM | MDA-MB-231 > 100 µM | Malme-3M 80.2 µM | NCI-H23 48.6 µM | NCI-H460 47.5 µM | NCI-H522 24.3 µM | NCI/ADR-RES > 100 µM | OVCAR-5 > 100 µM | RXF 393 19.5 µM | SF-268 50.5 µM | SF-539 42.5 µM | SK-MEL-28 33.2 µM | SK-OV-3 > 100 µM | SN12C 65.2 µM | T47D > 100 µM

Cc1cc2c(cc1Cl)Sc1nnc(C)n1S2(=O)=O
inactive: A549 25.1 µM | DU-145 22 µM | HCT-116 16.1 µM | HL-60 6.78 µM | K562 13.8 µM | MCF7 4.44 µM | MDA-MB-231 11.7 µM | Malme-3M 8.67 µM | NCI-H23 12.9 µM | NCI-H460 23.7 µM | NCI-H522 8.69 µM | NCI/ADR-RES 27 µM | OVCAR-5 29.2 µM | RXF 393 17.6 µM | SF-268 14.9 µM | SF-539 17.9 µM | SK-MEL-28 16.9 µM | SK-OV-3 26.6 µM | SN12C 14.8 µM | T47D 8.18 µM

N=C(N)SC1c2ccccc2-c2cc([N+](=O)[O-])ccc21 (stereo not given)
inactive: A549 4.33 µM | DU-145 3.88 µM | HCT-116 4.76 µM | HL-60 2.61 µM | K562 3.89 µM | MCF7 3.24 µM | MDA-MB-231 6.5 µM | Malme-3M 5.19 µM | NCI-H23 4.84 µM | NCI-H460 3.93 µM | NCI-H522 2.51 µM | NCI/ADR-RES 3.01 µM | OVCAR-5 9.95 µM | RXF 393 3.5 µM | SF-268 4.48 µM | SF-539 3.96 µM | SK-MEL-28 2.41 µM | SK-OV-3 4.44 µM | SN12C 8.51 µM | T47D 2.95 µM

O=C(Cc1ccc(Cl)cc1)Nc1ccc2oc(-c3ccccc3)nc2c1
inactive: A549 > 100 µM | DU-145 > 100 µM | HCT-116 > 100 µM | HL-60 > 100 µM | K562 > 100 µM | MCF7 > 100 µM | MDA-MB-231 > 100 µM | Malme-3M > 100 µM | NCI-H23 > 100 µM | NCI-H460 > 100 µM | NCI-H522 > 100 µM | NCI/ADR-RES 57.8 µM | OVCAR-5 > 100 µM | RXF 393 > 100 µM | SF-268 74 µM | SF-539 35.2 µM | SK-MEL-28 > 100 µM | SK-OV-3 77.8 µM | SN12C 84.9 µM | T47D > 100 µM

CCc1cc2c(cc1C(=O)CCC(=O)O)CC1(C2)Cc2cc(CC)c(C(=O)CCC(=O)O)cc2C1
inactive: A549 > 100 µM | DU-145 > 100 µM | HCT-116 > 100 µM | HL-60 > 100 µM | K562 91.2 µM | MCF7 > 100 µM | MDA-MB-231 > 100 µM | Malme-3M 38.5 µM | NCI-H23 > 100 µM | NCI-H460 > 100 µM | NCI-H522 > 100 µM | NCI/ADR-RES > 100 µM | OVCAR-5 > 100 µM | RXF 393 > 100 µM | SF-268 82.4 µM | SF-539 > 100 µM | SK-MEL-28 35.6 µM | SK-OV-3 > 100 µM | SN12C > 100 µM | T47D > 100 µM

CC(C)(C)c1cc(C2=NN(c3ccccc3)C(c3ccccc3)C2)cc(C(C)(C)C)c1O (stereo not given)
inactive: A549 > 100 µM | DU-145 > 100 µM | HCT-116 > 100 µM | HL-60 12.1 µM | K562 > 100 µM | MCF7 93.5 µM | MDA-MB-231 > 100 µM | Malme-3M > 100 µM | NCI-H23 > 100 µM | NCI-H460 > 100 µM | NCI-H522 > 100 µM | NCI/ADR-RES > 100 µM | OVCAR-5 > 100 µM | RXF 393 > 100 µM | SF-268 > 100 µM | SF-539 > 100 µM | SK-MEL-28 > 100 µM | SK-OV-3 > 100 µM | SN12C > 100 µM | T47D 31.5 µM
